Consider 62 compounds from a melting point compilation (Tetko et al.; mined from patent text by program, amines drawn as free bases though some values may be those of a salt).

Bounds are passed on as bounds.

`CCN(CC)C(=O)C1(OC(=S)N(CC)CC)C=CC=NC1F` (configuration not stated) returned a melting point of 87 to 92 °C.
To `COc1cc(-c2csc(NCCCCCC(=O)Nc3ccc(C(F)(F)F)cc3)n2)cc([N+](=O)[O-])c1O` belongs 160 to 162 °C; to `CC(C)n1nc(O)nc1N(C)C`, 111 to 112 °C; to `Cc1ccccc1Cn1cnc(C#N)c1C#N`, 80 to 81 °C.
Compound `CCCCCCCN(C[C@H]1CC[C@H](CN(CCCCCCC)C(=O)Nc2ccc(N(C)C)cc2)CC1)C(=O)Nc1ccc(N(C)C)cc1` gave a melting point of 112 to 114 °C.
On to `O=C1NC(=S)SC1=Cc1ccc(OCc2ccccc2-c2ccccc2C(=O)O)cc1`, for which the melting point is greater than 225 °C.
Under `CN1CCN(c2ccc(/C=C/c3cc(/C=C/c4ccc5cc[nH]c5c4)[nH]n3)c(Br)c2)CC1` stands 120 to 124 °C; under `COC(=O)c1ccc(C(=O)c2c(O)cccc2F)cc1`, 101 °C.
To `O=c1nc(-c2cccc(Sc3ccncc3)n2)sc2ccccc12` belongs 245 to 246 °C; to `CC(=O)NCC1CN=C(c2cc3cccc(N(C)S(=O)(=O)c4cccs4)c3[nH]2)S1` (configuration not stated), 212 to 213 °C; to `COc1cc(Nc2c(C#N)cnc3cc(OCC(C)(C)CN(C)C)c(OC)cc23)c(Cl)cc1Cl`, 178 to 180 °C.
Under `Cn1cccc1C(=O)C(C#N)C(=O)Nc1ccccc1` (configuration not stated) stands 170 to 172 °C; under `CCCCC(=NNC(N)=S)OCC`, 73 to 74.5 °C; under `CCCc1nc(N)nc(O)c1I`, 233 to 234 °C.
On to `COc1cccc(-c2cncc(OC3SCC(O)C(O)C3O)c2)c1` (configuration not stated), for which the melting point is 200 °C.
To `Cc1c(C(C)(C)C(=O)O)nc2ccc(NCCCN3CCC(OC(c4ccccc4)c4ccccc4)CC3)nn12` belongs 219 to 220 °C; to `O=C(NOc1ccc([N+](=O)[O-])cc1)OCCCNC(=O)OC1CCN(C(=O)Oc2ccc(Oc3ccccc3)cc2)CC1`, 97 to 100 °C; to `Cc1c2c(c(C)n1CCCN(C)C)C(C)(C#N)CC2(C)C` (configuration not stated), 90.5 to 91 °C.
Under `CNC(=O)CCC12CC(c3ccccc31)c1ccccc12` stands 200 to 201 °C; under `CC(C)(C)c1ccc(Cn2c(=O)n(Cc3ccc(C(C)(C)C)cc3)c3ccccc32)cc1`, 164 to 168 °C.
Under `Cc1nc2cc(NC(=O)c3ccco3)ccc2o1` stands 156 to 158 °C; under `CCOC(=O)c1[nH]c2cc(Cl)cc(Cl)c2c1NCC(=O)OCCCC(=O)c1ccccc1`, 139 to 140 °C.
Turning to `O=C1C=C(CBr)C(=O)C(CCC2=CC(=O)C=C(CBr)C2=O)=C1`, the melting point fell in the range of 146 to 147 °C.
To `CC1(C)CC(=O)C(=C(O)COc2ccc(Cl)cc2Cl)C(=O)C1` belongs 170 to 175 °C; to `O=[N+]([O-])c1cnc(Sc2nnc(O)n2-c2ccccc2)s1`, 188 to 190 °C.
On to `COc1ccc2c(c1)-c1noc(N3CCNCC3)c1CC2`, for which the melting point lay in the range of 86 to 88 °C.
Take `COC(=O)CC(c1ccc(OC)cc1)N1C(=O)c2ccccc2C1=O` (configuration not stated): the melting point was in the range of 65 to 66 °C.
Turning to `NS(=O)(=O)c1ccc(NC(=O)CNc2ccc(Cl)cc2)c(Cl)c1`, the melting point is 185 °C.
To `Cc1ccc(-n2ncc(C(=O)O)n2)cc1` belongs 209 to 211 °C; to `COc1ccc(C(C)(C)c2cc(C(C)(C)C)cc(-n3nc4ccc(C(F)(F)F)cc4n3)c2O)cc1`, 140 °C.
On to `CC(SCc1nccc2ccccc12)C(=O)O` (configuration not stated), for which the melting point is 153 to 156 °C.
`CCOC(=O)CN(CC(=O)OCC)C(=O)C(=O)c1ccc(OCCCCCCCCCCCCOc2ccccc2)cc1` showed a melting point of 55 to 56 °C.
Compound `Fc1ccc(CNc2nc(-n3cnc4ccccc43)nc(-n3cnc4ccccc43)n2)cc1` came in with a melting point of 296 to 298 °C.
Under `COc1cc(OC)nc(NS(=O)(=O)C(C(N)=O)C(C)C)n1` (configuration not stated) stands 147 to 150 °C; under `CC(=O)Nc1nc2ccccc2c2c(CC(C)C)n(C)nc12`, 130 to 131 °C.
To `COC(=O)c1ccc(Cc2cc3cc(C(F)(F)F)ccc3n2S(=O)(=O)c2ccc3c(c2)N(C)CCO3)cc1` belongs 63 °C.
For `O=c1[nH]c2ccccc2cc1-c1csc(-c2ccncc2)n1`, the melting point lay in the range of 241 to 243 °C.
In turn, `CCOP(C)(=O)CCNS(=O)(=O)c1ccc(C)cc1` (configuration not stated) had a melting point of 124 to 126 °C.
Compound `Cc1ccc(C2=NNC(=O)CC2)c(O)c1` registered a melting point of 210 to 211 °C.
As for `CS(=O)(=O)c1ccc(-c2[nH]c3ccc(Cl)cc3c2-c2ccccc2)cc1`, the melting point is 281 to 283 °C.
Under `CCOC(=O)c1cn(CCCl)c2nc(-c3ccncc3)c(F)cc2c1=O` stands 192 to 194 °C; under `NC(=O)CCN1CCC(C2c3ccccc3C=Cc3ccccc32)CC1`, 135 to 140 °C.
Under `CC(=O)Nc1nc(NC(C)=O)c2[nH]cnc2n1` stands 293 to 295 °C; under `CC(C)(CNC(=O)c1ncc[nH]1)c1ccc(C(=O)Nc2cn3cc(C(F)(F)F)ccc3n2)cc1`, 292 to 293 °C; under `CCOCc1nc2c(N)nc3ccc(N4CCOC4=O)cc3c2n1CC(C)(C)O`, 207 to 210 °C.
Compound `O=C(O)c1ccc2c(c1)Sc1ccc(F)cc1C=C2` returned a melting point of 273 to 275 °C.
Compound `Nc1nonc1-c1nc2ccccc2n1CC(=O)c1ccccc1` yielded a melting point of 202 to 204 °C.
Under `COC(=O)c1cc2c(N3CCN(CCC(C(=O)N4CCCCCC4)c4ccccc4)CC3)cccc2[nH]1` (configuration not stated) stands 152 to 168 °C; under `O=C(CNC(=O)c1ccc(S(=O)(=O)F)cc1)Nc1cccc(-c2cccc3c2/C(=C/c2ccc[nH]2)C(=O)N3)c1`, 248 to 250 °C; under `N#CC1c2cc(Cl)c(Cl)cc2C=CN1C(=O)c1ccccc1` (configuration not stated), 194 to 196 °C.
To `Cn1c(=S)n(C)c(=O)n(-c2c(F)cc(Cl)c3ncoc23)c1=O` belongs 209 to 211 °C; to `CC(=O)N1CCC2(c3ccccc3)OC2C1` (configuration not stated), 68 to 71 °C; to `COc1cc(Nc2ncc(C#N)c(-c3ccc(C(C)(C)N)cc3)n2)cc(OC)c1OC`, 167 to 168 °C.
Under `Cc1ccccc1NNC(N)=S` stands 158 to 160 °C.
Regarding `CCOC(=O)C1Cc2ccc(OC)c(Cl)c2O1` (configuration not stated), the melting point lay in the range of 108 to 110 °C.
Under `COc1cccc(Cn2c(-c3cc(OC)c(OC)c(OC)c3)nc3ccccc32)c1` stands 127 °C.
Under `COc1ccc(S(=O)(=O)N(CC(F)(F)F)c2ccc(Cl)cc2Cc2c(F)cccc2F)cc1OC` stands 70 °C; under `CC(=O)O[C@H]1CC[C@H](c2ccc(C#N)cc2)CC1`, 130 to 131 °C.
To `O=C(O)c1ccc(C(c2ccc(C(=O)O)c([N+](=O)[O-])c2)(C(F)(F)F)C(F)(F)F)cc1[N+](=O)[O-]` belongs 235 to 238 °C; to `CCC1(C)CC2(NC(=O)N(C)C2=O)C(C)C(C)(CC)N1C` (configuration not stated), 190 to 195 °C; to `N#Cc1ccc(Oc2ccccc2N)cc1C#N`, 118 °C.
`COc1ccc(CNc2nc(C)nc(C)c2Cl)cc1Oc1ccc2ncc([N+](=O)[O-])n2n1` yielded a melting point of 273 to 274 °C.

A word on the melting point: it is the temperature, or range, at which the solid turns liquid.
